Laboratory results as given in the NIST ThermoML archive (doi:10.1016/j.fluid.2010.11.026).

Conditions: Liquid, Closed cell (Static) method

CCCOC(C)=O [propyl ethanoate]
Conditions	vapor or sublimation pressure [kPa]
331.7 K	22.2
340.16 K	31.1
348.06 K	41.8
353.27 K	50.4
359.55 K	62.7
363.29 K	71
367.42 K	81.4
371.07 K	91.5
374.29 K	101.4

CCCO [propan-1-ol]
Conditions	vapor or sublimation pressure [kPa]
334.53 K	21.9
342.07 K	31.2
349.12 K	42.9
353.96 K	52.7
357.95 K	62.4
361.25 K	71.4
364.3 K	80.7
367.51 K	91.6
370.44 K	102.7

CCO [ethanol]
Conditions	vapor or sublimation pressure [kPa]
317 K	21.9
325.12 K	32.5
330.28 K	41.3
335.45 K	52
339.58 K	62.3
342.32 K	70
345.79 K	80.9
348.45 K	90.2
351.31 K	101.4
